Earlier results, collected in patent publication US10188676B2, “Anti-inflammatory solution” (Hypo-Stream Limited, priority 2013, dated 2019).

Test system: alveolar osteitis (AO)
Details: 0.2% solution or gel, surgical site irrigation

Structure (SMILES): [H]/N=C(\N/C(=N/[H])NCCCCCCNC(=N)NC(=N)Nc1ccc(Cl)cc1)Nc1ccc(Cl)cc1 [chlorhexidine]
- effectiveness against alveolar osteitis: Neither report found evidence of effectiveness
